Where a SMILES comes first, the peptide text is derived from it. Bridges are numbered along the chain shown (N, C = ends). [ ]: non-standard residue; d: D form. The star is where a group is joined. ξ: configuration not given here. Phe(4-COOH) = N[C@@H](Cc1ccc(C(=O)O)cc1)C(=O)O; Bip = N[C@@H](Cc1ccc(-c2ccccc2)cc1)C(=O)O; Phe(3-Me) = Cc1cccc(C[C@H](N)C(=O)O)c1; Val(3-OH) = CC(C)(O)[C@H](N)C(=O)O; 3Pal = N[C@@H](Cc1cccnc1)C(=O)O; 4Pal = N[C@@H](Cc1ccncc1)C(=O)O; Cha = N[C@@H](CC1CCCCC1)C(=O)O; Cit = NC(=O)NCCC[C@H](N)C(=O)O; dCha = N[C@H](CC1CCCCC1)C(=O)O; Carboxymethyl = O=C(O)C*; Orn = NCCC[C@H](N)C(=O)O; Pra = C#CC[C@H](N)C(=O)O; Dab = NCC[C@H](N)C(=O)O; Dap = NC[C@H](N)C(=O)O; ξPra = C#CCC(N)C(=O)O; Propargyl = C#CC*
target: T1, human PD-1 / PD-L1-Ig binding on Jurkat cell line over-expressing human PD-1 (Jurkat-PD-1) (Homo sapiens, UniProt Q15116); assay: Jurkat-PD-1 Cell Binding High-Content Screening Assay (CBA); type: cell-based; settings: Jurkat-PD-1 cells, PE-labeled PD-L1-Ig 20 nM final; read-out: Jurkat HPD1_PDL1 IC50
T1 construct: expressed in transfected cells; host or cells: Jurkat
Procedure, shortened: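 Read-out: high-content imaging of PE-tagged PD-L1-Ig bound to Jurkat cells overexpressing human PD-1, after fixation with 4% paraformaldehyde and Hoechst 33342 nuclear staining. Ligand was used at 20 nM final for 1 hour, after a 2 h compound exposure at 37° C in serum-containing DMEM.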

T1 sequence (Q15116 25-288): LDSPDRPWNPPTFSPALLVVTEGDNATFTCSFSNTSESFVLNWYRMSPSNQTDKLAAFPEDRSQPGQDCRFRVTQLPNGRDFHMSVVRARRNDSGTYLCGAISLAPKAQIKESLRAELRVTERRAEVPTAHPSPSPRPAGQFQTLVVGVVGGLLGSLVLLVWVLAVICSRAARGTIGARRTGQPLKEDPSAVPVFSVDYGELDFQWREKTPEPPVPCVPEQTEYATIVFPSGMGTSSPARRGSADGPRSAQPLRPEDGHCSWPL

In order of rising IC50:
1. Cc1cccc(C[C@@H]2NC(=O)[C@H](CC(=O)O)NC(=O)[C@H](Cc3ccc(OCC(=O)O)cc3)NC(=O)[C@H](Cc3cccnc3)NC(=O)CSC[C@@H](C(=O)N[C@@H](C)C(N)=O)NC(=O)[C@H]([C@@H](C)O)NC(=O)[C@H](C(C)C)NC(=O)[C@H](CC(C)C)NC(=O)[C@H](CCN)NC(=O)[C@@H](CC(C)C)NC(=O)[C@H](CCCN)NC(=O)[C@H](C(C)C)NC(=O)[C@H](Cc3ccc(-c4ccccc4)cc3)NC(=O)[C@H](C(C)C)NC2=O)c1 [Compound 1218] ({CH2CO}-[3Pal]Y(Carboxymethyl)D[Phe(3-Me)]V[Bip]V[Orn][dL][Dab]LVTCA-NH2; thioether N-14)  5.6 nM
2. CC(C)C[C@H]1NC(=O)[C@H](CCCN)NC(=O)[C@H](C(C)C)NC(=O)[C@H](Cc2ccc(-c3ccccc3)cc2)NC(=O)[C@H](C(C)C)NC(=O)[C@H](Cc2c[nH]c3ccccc23)NC(=O)[C@H](CC(=O)O)NC(=O)[C@H](Cc2ccc(OCC(=O)O)cc2)NC(=O)[C@H](Cc2ccc(OCC(=O)O)cc2)NC(=O)CSC[C@@H](C(=O)N[C@@H](C)C(N)=O)NC(=O)[C@H](CN)NC(=O)[C@H](C(C)C)NC(=O)[C@H](CC2CCCCC2)NC(=O)[C@H](CCN)NC1=O [Compound 1740] ({CH2CO}-Y(Carboxymethyl)Y(Carboxymethyl)DWV[Bip]V[Orn][dL][Dab][Cha]V[Dap]CA-NH2; thioether N-14)  6.1 nM
3. Cc1cccc(C[C@@H]2NC(=O)[C@H](CC(=O)O)NC(=O)[C@H](Cc3ccc(C(=O)O)cc3)NC(=O)[C@H](Cc3ccncc3)NC(=O)CSC[C@@H](C(=O)N[C@@H](C)C(N)=O)NC(=O)[C@H]([C@@H](C)O)NC(=O)[C@H](C(C)C)NC(=O)[C@H](CC3CCCCC3)NC(=O)[C@H](CCN)NC(=O)[C@@H](CC(C)C)NC(=O)[C@H](CCCN)NC(=O)[C@H](CCC(=O)O)NC(=O)[C@H](Cc3ccc(-c4ccccc4)cc3)NC(=O)[C@H](C(C)C)NC2=O)c1 [Compound 1417]  7 nM
4. C#CC[C@H](NC(=O)[C@H](CCN)NC(=O)[C@@H]1CSCC(=O)N[C@@H](CCCN)C(=O)N[C@@H](Cc2ccc(C(=O)O)cc2)C(=O)N[C@@H](CC(=O)O)C(=O)N[C@@H](Cc2cccc(C)c2)C(=O)N[C@@H](Cc2ccc(C(=O)O)cc2)C(=O)N[C@@H](Cc2ccc(-c3ccccc3)cc2)C(=O)N[C@@H](Cc2ccc(C(=O)O)cc2)C(=O)N[C@@H](CCCN)C(=O)N[C@H](CC(C)C)C(=O)N[C@@H](CCN)C(=O)N[C@@H](CC2CCCCC2)C(=O)N[C@@H](C(C)(C)O)C(=O)N[C@@H](Cc2cnc[nH]2)C(=O)N1)C(N)=O [Compound 1857] ({CH2CO}-[Orn][Phe(4-COOH)]D[Phe(3-Me)][Phe(4-COOH)][Bip][Phe(4-COOH)][Orn][dL][Dab][Cha][Val(3-OH)]HC[Dab][Pra]-NH2; thioether N-14)  7.4 nM
5. C#CCOc1ccc(C[C@@H]2NC(=O)[C@H](CC3CCCCC3)NC(=O)[C@H](CCN)NC(=O)[C@@H](CC(C)C)NC(=O)[C@H](CCCN)NC(=O)[C@H](C(C)C)NC(=O)[C@H](Cc3ccc(-c4ccccc4)cc3)NC(=O)[C@H](C(C)C)NC(=O)[C@H](Cc3cccc(C)c3)NC(=O)[C@H](CC(=O)O)NC(=O)[C@H](Cc3ccc(C(=O)O)cc3)NC(=O)[C@H](CN)NC(=O)CSC[C@@H](C(=O)N[C@@H](CCN)C(N)=O)NC(=O)[C@H]([C@@H](C)O)NC2=O)cc1 [Compound 2028] ({CH2CO}-[Dap][Phe(4-COOH)]D[Phe(3-Me)]V[Bip]V[Orn][dL][Dab][Cha]Y(Propargyl)TC[Dab]-NH2; thioether N-14)  9.3 nM
6. CC(C)C[C@@H]1NC(=O)[C@H](CC(N)=O)NC(=O)[C@@H](CC(C)C)NC(=O)[C@H](CN)NC(=O)[C@H](C(C)C)NC(=O)[C@H](Cc2ccc(-c3ccccc3)cc2)NC(=O)[C@H](C(C)C)NC(=O)[C@H](Cc2c[nH]c3ccccc23)NC(=O)[C@H](CC(=O)O)NC(=O)[C@H](Cc2ccncc2)NC(=O)[C@H](CN)NC(=O)CSC[C@@H](C(=O)NCC(N)=O)NC(=O)[C@H](CO)NC(=O)[C@H](C(C)C)NC1=O [Compound 1293] ({CH2CO}-[Dap][4Pal]DWV[Bip]V[Dap][dL]NLVSCG-NH2; thioether N-14)  10.6 nM
7. C#CCOc1ccc(C[C@@H]2NC(=O)[C@H](CCN)NC(=O)CSC[C@@H](C(=O)N[C@@H](CCN)C(N)=O)NC(=O)[C@H](CCC(=O)O)NC(=O)[C@H](C(C)C)NC(=O)[C@H](CC3CCCCC3)NC(=O)[C@H](CCN)NC(=O)[C@@H](CC(C)C)NC(=O)[C@H](CCCN)NC(=O)[C@H](Cc3ccc(OCC(=O)O)cc3)NC(=O)[C@H](Cc3ccc(-c4ccccc4)cc3)NC(=O)[C@H](Cc3ccc(OCC(=O)O)cc3)NC(=O)[C@H](Cc3cccc(C)c3)NC(=O)[C@H](CC(=O)O)NC2=O)cc1 [Compound 1820] ({CH2CO}-[Dab]Y(Propargyl)D[Phe(3-Me)]Y(Carboxymethyl)[Bip]Y(Carboxymethyl)[Orn][dL][Dab][Cha]VEC[Dab]-NH2; thioether N-14)  17.2 nM
8. CC(C)C[C@@H]1NC(=O)[C@H](CCN)NC(=O)[C@@H](CC(C)C)NC(=O)[C@H](CCCCN)NC(=O)[C@H](C(C)C)NC(=O)[C@H](Cc2ccc(-c3ccccc3)cc2)NC(=O)[C@H](C(C)C)NC(=O)[C@H](Cc2c[nH]c3ccccc23)NC(=O)[C@H](CC(=O)O)NC(=O)[C@H](Cc2ccc(O)cc2)NC(=O)[C@H](CC(N)=O)NC(=O)CSC[C@@H](C(=O)N[C@@H](C)C(N)=O)NC(=O)[C@H](CO)NC(=O)[C@H](C(C)C)NC1=O [Compound 1128] ({CH2CO}-NYDWV[Bip]VK[dL][Dab]LVSCA-NH2; thioether N-14)  17.6 nM
9. CC(C)[C@@H]1NC(=O)[C@H](Cc2c[nH]c3ccccc23)NC(=O)[C@H](CC(=O)O)NC(=O)[C@H](Cc2ccc(OCC(=O)O)cc2)NC(=O)[C@H](Cc2ccncc2)NC(=O)CSC[C@@H](C(=O)N[C@@H](C)C(N)=O)NC(=O)[C@H]([C@@H](C)O)NC(=O)[C@H](C(C)C)NC(=O)[C@H](CC2CCCCC2)NC(=O)[C@H](CCN)NC(=O)[C@@H](CC2CCCCC2)NC(=O)[C@H](CCCN)NC(=O)[C@H](C(C)C)NC(=O)[C@H](Cc2ccc(-c3ccccc3)cc2)NC1=O [Compound 1636] ({CH2CO}-[4Pal]Y(Carboxymethyl)DWV[Bip]V[Orn][dCha][Dab][Cha]VTCA-NH2; thioether N-14)  19.7 nM
10. C#CCC(NC(=O)[C@H](CCCN)NC(=O)[C@@H]1CSCC(=O)N[C@@H](Cc2ccncc2)C(=O)N[C@@H](Cc2ccc(OCC(=O)O)cc2)C(=O)N[C@@H](CC(=O)O)C(=O)N[C@@H](Cc2c[nH]c3ccccc23)C(=O)N[C@@H](C(C)C)C(=O)N[C@@H](Cc2ccc(-c3ccccc3)cc2)C(=O)N[C@@H]([C@@H](C)CC)C(=O)N[C@@H](CCCN)C(=O)N[C@H](CC(C)C)C(=O)N[C@@H](CCN)C(=O)N[C@@H](CC(C)C)C(=O)N[C@@H](C(C)C)C(=O)N[C@@H]([C@@H](C)O)C(=O)N1)C(N)=O (stereo partly drawn) [Compound 1766] ({CH2CO}-[4Pal]Y(Carboxymethyl)DWV[Bip]I[Orn][dL][Dab]LVTC[Orn][ξPra]-NH2; thioether N-14)  31.4 nM
11. CC(C)C[C@@H]1NC(=O)[C@H](CCN)NC(=O)[C@@H](CC(C)C)NC(=O)[C@H](CCCN)NC(=O)[C@H](CCCNC(N)=O)NC(=O)[C@H](Cc2ccc(-c3ccccc3)cc2)NC(=O)[C@H](C(C)C)NC(=O)[C@H](Cc2c[nH]c3ccccc23)NC(=O)[C@H](CC(=O)O)NC(=O)[C@H](Cc2ccc(C(=O)O)cc2)NC(=O)[C@H](CN)NC(=O)CSC[C@@H](C(=O)N[C@@H](C)C(N)=O)NC(=O)[C@H]([C@@H](C)O)NC(=O)[C@H](C(C)C)NC1=O [Compound 1043] ({CH2CO}-[Dap][Phe(4-COOH)]DWV[Bip][Cit][Orn][dL][Dab]LVTCA-NH2; thioether N-14)  31.9 nM
12. CC(C)C[C@@H]1NC(=O)[C@H](Cc2c[nH]c3ccccc23)NC(=O)[C@H](CC(=O)O)NC(=O)[C@H](Cc2ccc(O)cc2)NC(=O)[C@H](Cc2ccccc2)NC(=O)CSC[C@@H](C(=O)N[C@@H](C)C(N)=O)NC(=O)[C@H](CO)NC(=O)[C@H](C(C)C)NC(=O)[C@H](CC(C)C)NC(=O)[C@H](CC(N)=O)NC(=O)[C@@H](C)NC(=O)[C@@H](CCCCN)NC(=O)[C@H](C(C)C)NC(=O)[C@H](Cc2ccc(-c3ccccc3)cc2)NC1=O [Compound 2000] ({CH2CO}-FYDWL[Bip]V[dK][dA]NLVSCA-NH2; thioether N-14)  39.4 nM
13. CCC(C)[C@@H]1NC(=O)[C@H](Cc2ccc(-c3ccccc3)cc2)NC(=O)[C@H](C(C)C)NC(=O)[C@H](Cc2ccc(F)c(C(F)(F)F)c2)NC(=O)[C@H](CC(=O)O)NC(=O)[C@H](Cc2ccc(OCC(=O)O)cc2)NC(=O)[C@H](CN)NC(=O)CSC[C@@H](C(=O)N[C@@H](C)C(N)=O)NC(=O)[C@H]([C@@H](C)O)NC(=O)[C@H](C(C)C)NC(=O)[C@H](CC2CCCCC2)NC(=O)[C@H](CCN)NC(=O)[C@@H](CC(C)C)NC(=O)[C@H](CCCN)NC1=O (stereo partly drawn) [Compound 2245]  45.5 nM
14. CC(C)C[C@@H]1NC(=O)[C@H](CCN)NC(=O)[C@@H](CC(C)C)NC(=O)[C@H](CCCN)NC(=O)[C@H](CCCNC(N)=O)NC(=O)[C@H](Cc2ccc(-c3ccccc3)cc2)NC(=O)[C@H](C(C)C)NC(=O)[C@H](Cc2c[nH]c3ccccc23)NC(=O)[C@H](CC(=O)O)NC(=O)[C@H](Cc2ccc(O)cc2)NC(=O)[C@H](CC(N)=O)NC(=O)CSC[C@@H](C(=O)NCC(N)=O)NC(=O)[C@H]([C@@H](C)O)NC(=O)[C@H](C(C)C)NC1=O [Compound 1115] ({CH2CO}-NYDWV[Bip][Cit][Orn][dL][Dab]LVTCG-NH2; thioether N-14)  79.6 nM
15. CC(C)C[C@@H]1NC(=O)[C@H](Cc2c[nH]c3ccccc23)NC(=O)[C@H](CC(=O)O)NC(=O)[C@H](Cc2ccc(O)cc2)NC(=O)[C@H](Cc2ccccc2)NC(=O)CSC[C@@H](C(=O)N[C@@H](C)C(N)=O)NC(=O)[C@H]([C@@H](C)O)NC(=O)[C@H](C(C)C)NC(=O)[C@H](CC(C)C)NC(=O)[C@H](CCN)NC(=O)[C@@H](C)NC(=O)[C@H](CN)NC(=O)[C@H](C(C)C)NC(=O)[C@H](Cc2ccc(-c3ccccc3)cc2)NC1=O [Compound 1097] ({CH2CO}-FYDWL[Bip]V[Dap][dA][Dab]LVTCA-NH2; thioether N-14)  132 nM

Source: patent publication US20250163104A1, “MACROCYCLIC IMMUNOMODULATORS” (priority 2021, published 2025)
